According to patent publication US20240108602A1, “TREATMENT OF MENTAL DISORDERS” (GH Research Ireland Limited, priority 2022, published 2024):
Where “and” joins values, the source holds several entries; their conditions need not be identical. Equal entries are not always repeated.

System: patients with treatment-resistant major depressive disorder (TRD)
Experiment: Phase 1/2 clinical trial of inhaled 5-MeO-DMT in TRD patients (12 mg, 18 mg, individualized dosing regimen IDR 6/12/18 mg)
Method: Patients were assigned to different groups. In the context of the present invention, the group who received a single, 12 mg dose and the group who underwent an intra-day individualized dosing regimen (IDR) that allowed for multiple, escalating doses (6 mg, 12 mg and 18 mg) within a single day, driven by the intensity of the patient-reported psychedelic experience are of interest.
The data gathered include the assessment of the treated patients against several scales including the Montgomery-Åsberg Depression Rating Scale (MADRS) and the Brief Psychiatric Rating Scale (BPRS).
This trial was designed in two parts. Part A was an open-label, single-arm, single-dose Phase 1 trial with two dose levels (12 mg (n=4) and 18 mg (n=4)). […] The primary endpoint of Part B was to assess the effects on the severity of depression, as assessed by the proportion of patients in remission on day seven after dosing, defined as a MADRS total score of less than or equal to 10.

Structure (SMILES): COc1ccc2[nH]cc(CCN(C)C)c2c1 [5-MeO-DMT]
- MADRS Concentration Difficulties improvement (points) (12 mg n=4, 2 h): 9
- MADRS Concentration Difficulties percentage improvement (12 mg n=4, 2 h): 56% and 56.25%
- MADRS Concentration Difficulties summed score (12 mg n=4, 2 h): 7
- MADRS Inability to Feel improvement (points) (12 mg n=4, 2 h): 7
- MADRS Inability to Feel percentage improvement (12 mg n=4, 2 h): 44% and 43.75%
- MADRS Inability to Feel summed score (12 mg n=4, 2 h): 9
- MADRS Inner Tension improvement (points) (12 mg n=4, 2 h): 11
- MADRS Inner Tension percentage improvement (12 mg n=4, 2 h): 85% and 84.62%
- MADRS Inner Tension summed score (12 mg n=4, 2 h): 2
- MADRS Lassitude improvement (points) (12 mg n=4, 2 h): 6
- MADRS Lassitude percentage improvement (12 mg n=4, 2 h): 38% and 37.50%
- MADRS Lassitude summed score (12 mg n=4, 2 h): 10
- MADRS Pessimistic Thoughts improvement (points) (12 mg n=4, 2 h): 8
- MADRS Pessimistic Thoughts percentage improvement (12 mg n=4, 2 h): 50%
- MADRS Pessimistic Thoughts summed score (12 mg n=4, 2 h): 8
- MADRS Suicidal Thoughts improvement (points) (12 mg n=4, 2 h): 5
- MADRS Suicidal Thoughts percentage improvement (12 mg n=4, 2 h): 63% and 62.50%
- MADRS Suicidal Thoughts summed score (12 mg n=4, 2 h): 3
- BPRS Anxiety improvement (points) (12 mg n=4, 3 h): 14
- BPRS Anxiety percentage improvement (12 mg n=4, 3 h): 56%
- BPRS Anxiety summed score (12 mg n=4, 3 h): 11
- BPRS Blunted Affect improvement (points) (12 mg n=4, 3 h): 3
- BPRS Blunted Affect percentage improvement (12 mg n=4, 3 h): 27% and 27.27%
- BPRS Blunted Affect summed score (12 mg n=4, 3 h): 8
- BPRS Emotional Withdrawal improvement (points) (12 mg n=4, 3 h): 2
- BPRS Emotional Withdrawal percentage improvement (12 mg n=4, 3 h): 15% and 15.38%
- BPRS Emotional Withdrawal summed score (12 mg n=4, 3 h): 11
- BPRS Guilt Feelings improvement (points) (12 mg n=4, 3 h): 9
- BPRS Guilt Feelings percentage improvement (12 mg n=4, 3 h): 50%
- BPRS Guilt Feelings summed score (12 mg n=4, 3 h): 9
- BPRS Tension improvement (points) (12 mg n=4, 3 h): 5
- BPRS Tension percentage improvement (12 mg n=4, 3 h): 36% and 35.71%
- BPRS Tension summed score (12 mg n=4, 3 h): 9
- BPRS Anxiety improvement (points) (12 mg n=4, Day 1): 19
- BPRS Anxiety percentage improvement (12 mg n=4, Day 1): 76%
- BPRS Anxiety summed score (12 mg n=4, Day 1): 6
- BPRS Blunted Affect improvement (points) (12 mg n=4, Day 1): 5
- BPRS Blunted Affect percentage improvement (12 mg n=4, Day 1): 45% and 45.45%
- BPRS Blunted Affect summed score (12 mg n=4, Day 1): 6
- BPRS Emotional Withdrawal improvement (points) (12 mg n=4, Day 1): 5
- BPRS Emotional Withdrawal percentage improvement (12 mg n=4, Day 1): 38% and 38.46%
- BPRS Emotional Withdrawal summed score (12 mg n=4, Day 1): 8
- BPRS Guilt Feelings improvement (points) (12 mg n=4, Day 1): 13
- BPRS Guilt Feelings percentage improvement (12 mg n=4, Day 1): 72% and 72.22%
- BPRS Guilt Feelings summed score (12 mg n=4, Day 1): 5
- BPRS Tension improvement (points) (12 mg n=4, Day 1): 8
- BPRS Tension percentage improvement (12 mg n=4, Day 1): 57% and 57.14%
- BPRS Tension summed score (12 mg n=4, Day 1): 6
- MADRS Concentration Difficulties improvement (points) (12 mg n=4, Day 1): 14
- MADRS Concentration Difficulties percentage improvement (12 mg n=4, Day 1): 88% and 87.50%
- MADRS Concentration Difficulties summed score (12 mg n=4, Day 1): 2
- MADRS Inability to Feel improvement (points) (12 mg n=4, Day 1): 15
- MADRS Inability to Feel percentage improvement (12 mg n=4, Day 1): 94% and 93.75%
- MADRS Inability to Feel summed score (12 mg n=4, Day 1): 1
- MADRS Inner Tension improvement (points) (12 mg n=4, Day 1): 10
- MADRS Inner Tension percentage improvement (12 mg n=4, Day 1): 77% and 76.92%
- MADRS Inner Tension summed score (12 mg n=4, Day 1): 3
- MADRS Lassitude improvement (points) (12 mg n=4, Day 1): 16
- MADRS Lassitude percentage improvement (12 mg n=4, Day 1): 100%
- MADRS Lassitude summed score (12 mg n=4, Day 1): 0
- MADRS Pessimistic Thoughts improvement (points) (12 mg n=4, Day 1): 9
- MADRS Pessimistic Thoughts percentage improvement (12 mg n=4, Day 1): 56% and 56.25%
- MADRS Pessimistic Thoughts summed score (12 mg n=4, Day 1): 7
- MADRS Reduced Sleep improvement (points) (12 mg n=4, Day 1): 2
- MADRS Reduced Sleep percentage improvement (12 mg n=4, Day 1): 17% and 16.67%
- MADRS Reduced Sleep summed score (12 mg n=4, Day 1): 10
- MADRS Suicidal Thoughts improvement (points) (12 mg n=4, Day 1): 3
- MADRS Suicidal Thoughts percentage improvement (12 mg n=4, Day 1): 38% and 37.50%
- MADRS Suicidal Thoughts summed score (12 mg n=4, Day 1): 5
- BPRS Anxiety improvement (points) (12 mg n=4, Day 7): 19
- BPRS Anxiety percentage improvement (12 mg n=4, Day 7): 76%
- BPRS Anxiety summed score (12 mg n=4, Day 7): 6
- BPRS Blunted Affect improvement (points) (12 mg n=4, Day 7): 6
- BPRS Blunted Affect percentage improvement (12 mg n=4, Day 7): 55% and 54.55%
- BPRS Blunted Affect summed score (12 mg n=4, Day 7): 5
- BPRS Emotional Withdrawal improvement (points) (12 mg n=4, Day 7): 7
- BPRS Emotional Withdrawal percentage improvement (12 mg n=4, Day 7): 54% and 53.85%
- BPRS Emotional Withdrawal summed score (12 mg n=4, Day 7): 6
- BPRS Guilt Feelings improvement (points) (12 mg n=4, Day 7): 13
- BPRS Guilt Feelings percentage improvement (12 mg n=4, Day 7): 72% and 72.22%
- BPRS Guilt Feelings summed score (12 mg n=4, Day 7): 5
- BPRS Tension improvement (points) (12 mg n=4, Day 7): 8
- BPRS Tension percentage improvement (12 mg n=4, Day 7): 57% and 57.14%
- BPRS Tension summed score (12 mg n=4, Day 7): 6
- MADRS Concentration Difficulties improvement (points) (12 mg n=4, Day 7): 13
- MADRS Concentration Difficulties percentage improvement (12 mg n=4, Day 7): 81% and 81.25%
- MADRS Concentration Difficulties summed score (12 mg n=4, Day 7): 3
- MADRS Inability to Feel improvement (points) (12 mg n=4, Day 7): 15
- MADRS Inability to Feel percentage improvement (12 mg n=4, Day 7): 94% and 93.75%
- MADRS Inability to Feel summed score (12 mg n=4, Day 7): 1
- MADRS Inner Tension improvement (points) (12 mg n=4, Day 7): 8
- MADRS Inner Tension percentage improvement (12 mg n=4, Day 7): 62% and 61.54%
- MADRS Inner Tension summed score (12 mg n=4, Day 7): 5
- MADRS Lassitude improvement (points) (12 mg n=4, Day 7): 13
- MADRS Lassitude percentage improvement (12 mg n=4, Day 7): 81% and 81.25%
- MADRS Lassitude summed score (12 mg n=4, Day 7): 3
- MADRS Pessimistic Thoughts improvement (points) (12 mg n=4, Day 7): 8
- MADRS Pessimistic Thoughts percentage improvement (12 mg n=4, Day 7): 50%
- MADRS Pessimistic Thoughts summed score (12 mg n=4, Day 7): 8
- MADRS Reduced Sleep improvement (points) (12 mg n=4, Day 7): 6
- MADRS Reduced Sleep percentage improvement (12 mg n=4, Day 7): 50%
- MADRS Reduced Sleep summed score (12 mg n=4, Day 7): 6
- MADRS Suicidal Thoughts improvement (points) (12 mg n=4, Day 7): 1
- MADRS Suicidal Thoughts percentage improvement (12 mg n=4, Day 7): 13% and 12.50%
- MADRS Suicidal Thoughts summed score (12 mg n=4, Day 7): 7
- patients with MADRS remission (12 mg n=4, day seven): 50%
- mean MADRS change from baseline (12 mg, day seven): −21.0
- mean MADRS change from baseline, percent (12 mg, day seven): −65%
- further patients with MADRS clinical response (18 mg n=4, day seven): 25%
- patients with MADRS remission (18 mg n=4, day seven): 25%
- mean MADRS change from baseline, percent (18 mg, day seven): −41%
- patients maintaining remission (fraction) (Day 7): ⅞
